Source: patent publication US20220304945A1, “METHODS OF TREATING METABOLIC SYNDROME RELATED CONDITIONS USING RETINOIC ACID RECEPTOR AGONISTS” (Cornell University, priority 2014, published 2022)
“Also recorded” adds a separate entry of the source.

Columns and labels:
Assay type in all cases: in vivo, mouse
[1] = Serum triglyceride and cholesterol level measurements, HFD-fed mice (Examples 11-15); settings: mice fed HFD 4 months, drug in drinking water (AC261066 1.5 mg/100 ml)
Protocol: AC261066(Lund et al., Discovery of a potent, orally available, and isoform-selective retinoic acid beta2 receptor agonist. J Med Chem. 2005; 48(24):7517-9) and CD1530 (Thacher et al. Therapeutic applications for ligands of retinoid receptors. Curr Pharm Des. 2000; 6(1):25-58) was dissolved in dimethyl sulfoxide (DMSO) at the concentration of 1.5 mg/ml for AC261066 and 2.5 mg/ml for CD1530, and diluted in the drinking water for mice to the final concentration of 1.5 mg/100 ml and 2.5 mg/100 ml, respectively.
(§1) WT male C57/BL6 male mice were maintained on either a standard laboratory chow-fed diet (Con) with 13% kcal fat, (diet #5053, Lab Diet, Inc, St. Louis, Mo.) or a high fat, western style diet (HFD) with 45% kcals from fat, (diet #58126, Lab Diet, Inc., St. Louis, Mo.) for 4 months. One month after the start of the HFD treatment, the HFD group was further split into 3 groups for 3 months: i) HFD and the drinking water containing 1% DMSO; ii) high fat diet (HFD) and drinking water containing 1.5 mg/100 ml AC261066, a specific RARβ agonist in 1% DMSO or iii) HFD and drinking water containing 1.5 mg/100 ml CD1530, a specific RARγ agonist in 1% DMSO. Then mice were sacrificed by cervical dislocation. Blood and various tissue samples were harvested.
The analysis of serum triglyceride levels was carried out using a bichromatic assay at the Laboratory of Comparative Pathology of the Memorial Sloan-Kettering Cancer Center. Chow-fed diet (Con) n=4; high fat diet (HFD) n=4; high fat diet (HFD)+AC261066 n=4; and high fat diet (HFD)+CD1530, n=4.

[2] = system: srebp1-c, fas, dgat1, fgf21, ppar-γ, sirt1, ppar-α, srebp-2, hmgcr, pepck mRNA; test: Q-RT-PCR of hepatic lipogenic, cholesterol and gluconeogenic genes, HFD-fed mice (Example 15)
Protocol: as §1
Total RNA was extracted from mouse tissues using TRIzol reagent (Life technologies) and (1 μg) was used to synthesize cDNA. cDNA synthesis was performed at 42° C. for 1 h in a final volume of 20 μl using qScript (Quanta, MD). Q-RTPCR was performed as previously described (15). Primers for gene expression used were as follows: […]

[3] = system: α-SMA, SREBP1c, MCP-1, TNF-α mRNA; test: Semi-quantitative PCR of liver, HF-fed mice; settings: HF diet mice 4 months
Text: (§2) Mice, diet, and drug treatment. WT male C57/BL6 male mice were maintained on either a standard laboratory chow-fed diet (CFD) with 13% kcal fat, (diet #5053, Lab Diet, Inc, St. Louis, Mo.) or a high fat, western style diet (HFD) with 60% kcals from fat, (diet #58126, Lab Diet, Inc., St. Louis, Mo.) for 4 months. One month after the start of the high fat diet treatment, the high fat diet group was further split into 2 groups for 3 months: i) high fat diet and the drinking water containing 1% DMSO; ii) high fat diet and the drinking water containing 1.5 mg/100 ml AC261066, a specific RARβ agonist. Then mice were sacrificed by cervical dislocation. Blood and various tissue samples were harvested.
Semi-Quantitate PCR (Liver). Total RNA was extracted from mouse tissues using TRIzol reagent (Life technologies) and (1 μg) was used to synthesize cDNA. cDNA synthesis was performed at 42° C. for 1 h in a final volume of 20 μl using qScript (Quanta, MD). Semi-quantitative PCR were performed Taq DNA polymerase (Invitrogen, CA). Three step PCR was run as follows: 94° C. for 30 s, 58-64° C. for 45 s for primer annealing and 72° C. for 1 min for primer extension. The number of cycles for each primer pair for amplification in the linear range was determined experimentally. PCR products were resolved on 2% agarose gels and visualized by staining with ehtidium bromide. Primers for gene expression used were as follows: […]

HF-fed C57/BL6 mice = test: Renal lipid accumulation: H and E and oil red O staining of kidney, HF-fed mice; settings: HF diet mice 4 months; vs HF-vehicle
Text: as §2
Hematoxylin and Eosin Staining. At sacrifice, fresh mouse liver samples were fixed in 4% formaldehyde solution for 24 hr and embedded in paraffin blocks. Kidney paraffin sections were cut 5 microns thick and mounted on glass slides and stained with hematoxylin and eosin (H and E) using standard protocols.
Combined oil red O and Immunofluorescence staining. Fresh mouse kidney samples were embedded in optimal cutting temperature (OCT) medium and immediately frozen to −70 centigrade. Cryosections were then fixed in 4% formaldehyde for 1 hr at room temp. Slides were then rinsed three times in deionized water (dH2O) for 30 s, followed by treatment with 0.5% Triton X-100 in PBS for 5 min. Sections were then washed three times with PBS for 5 min. Samples were with incubated 2% bovine serum albumin (BSA) for 30 min at room temperature to block for unspecific antibody binding. Following blocking, sections were washed three times in PBS and incubated with mouse monoclonal antibody against α-SMA (1:500) (Dako, Inc) for 24 h at 4° C. After 24 h sections were washed three times in PB and incubated with Alexa-Flour-488 anti-mouse secondary anti-body (1:500) (Invitrogen, Inc) for 30 min at room temperature. Sections were then washed three times in PBS and incubated with working strength oil-red O solution for 30 minutes at room temperature. […]

CCCCOCCOc1nc(-c2ccc(C(=O)O)c(F)c2)sc1C [AC261066]
serum cholesterol [1]: greatly reduces; also recorded: significantly lower | serum triglycerides [1]: greatly reduces; also recorded: significantly lower | hepatic gene expression of pepck [2]: not affected | hepatic mRNA levels of lipogenic proteins srebp1-c, fas, dgat1, fgf21, ppar-γ [2]: greatly reduces; also recorded: significantly reduced | hepatic mRNA levels of sirt1 and ppar-α [2]: prevented a large decrease | hepatic mRNA levels of srebp-2 and hmgcr [2]: significantly reduced | hepatic mRNA level of MCP-1 [3]: decreases; also recorded: significantly diminish | hepatic mRNA level of TNF-α [3]: decreases | hepatic mRNA level of alpha-SMA ([3]; vs HF-vehicle): decreased | renal lipid accumulation (H and E) (HF-fed C57/BL6 mice): diminished; also recorded: markedly decreased | renal lipid accumulation (oil red O) (HF-fed C57/BL6 mice): marked diminished; also recorded: comparably less

O=C(O)c1ccc(-c2ccc3cc(O)c(C45CC6CC(CC(C6)C4)C5)cc3c2)cc1 [CD1530]
serum cholesterol [1]: no decrease | serum triglycerides [1]: no decrease | hepatic gene expression of pepck [2]: not affected | hepatic mRNA levels of srebp-2 and hmgcr [2]: not observed | hepatic mRNA level of MCP-1 [3]: markedly elevated | hepatic mRNA level of TNF-α [3]: markedly elevated | hepatic mRNA level of SREBP1-c ([3]; vs control diet): markedly higher | renal lipid accumulation (H and E) (HF-fed C57/BL6 mice): no decrease
